# Laboratory results: paper PMC11904993, “Humanized Candida and NanoBiT Assays Expedite Discovery of Bdf1 Bromodomain Inhibitors With Antifungal Potential” (Advanced Science, 2025)
# Values joined by “and” are separate entries in the source; they are usually repeats but may differ in a detail not shown here. Equal values may be shown once. Read-outs that look alike come from different tables or passages of the source.
# Tests used:
# [1] = molecular target: CgBdf1 BD1 (Candida glabrata, UniProt Q6FWV7); test: HTRF assay, inhibition of H4ac4 peptide binding; design: species or system C. glabrata
# [2] = molecular target: CgBdf1 BD2 (Candida glabrata, UniProt Q6FWV7); test: biochemical; format: binding, C. glabrata
# [3] = molecular target: human Brd4 BD1 (Homo sapiens, UniProt O60885); test: HTRF assay, inhibition of H4ac4 peptide binding
# [4] = molecular target: T1, human Brd4 BD2 (Homo sapiens, UniProt O60885); test: HTRF assay, inhibition of H4ac4 peptide binding; conditions: Table S3; estimate, preliminary single-replicate HTRF assay; read-out: IC50 Brd4 BD2
# T1 construct: GST‐tagged BD2 (residues 349–460) from human Brd4 (UniProt ID O60885); purchased Reaction Biology Corp
# [5] = tested on: CgBdf1 BD1; test: Histone peptide array assay
# Experimental: (§1) The array was prepared as described in the manufacturer's instructions. […] The array was then washed three times with binding buffer. Anti‐GST antibody (GE Healthcare) was used for the detection of GST‐tagged bromodomains.
# [6] = tested on: CgBdf1 BD2; test: Histone peptide array assay
# Experimental: as §1
# [7] = tested on: C. glabrata strains expressing WT and mutant Bdf1; test: Growth inhibition in liquid media, C. glabrata lab strains; conditions: Nakaseomyces glabratus, single experiments Exp1-3
# Experimental: Growth on Liquid Media with C. glabrata Lab Strains: Cells were grown at 30 °C in SC+M+C‐U medium (SC medium with 5 mM methionine, 0.25 mM cysteine, without uracil) to an OD600 of 0.5–0.8. […] Plates were incubated at 30 °C and OD600 was measured using a Multiskan FC Microplate Photometer (Thermo Fisher).
# CgBdf1 BD1 (Candida glabrata, UniProt Q6FWV7), sequence (Q6FWV7 entry or part of it): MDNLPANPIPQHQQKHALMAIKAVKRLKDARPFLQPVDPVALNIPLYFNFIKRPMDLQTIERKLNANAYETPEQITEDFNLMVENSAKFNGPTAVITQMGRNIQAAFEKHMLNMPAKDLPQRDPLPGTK
# CgBdf1 BD2 (Candida glabrata, UniProt Q6FWV7), sequence (Q6FWV7 entry or part of it): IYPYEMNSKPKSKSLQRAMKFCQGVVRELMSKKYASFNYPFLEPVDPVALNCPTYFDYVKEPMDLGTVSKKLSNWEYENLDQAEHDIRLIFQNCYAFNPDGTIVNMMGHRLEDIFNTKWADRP
smiles,measurement,setting,value
COc1ccc(CNc2nc(-c3ccccc3)nnc2C)cc1 [Compound 10],IC50,"[1]; Fig 2C original data, analogs of 24, single experiments Exp1-3, read-out: pIC50 CgBD1 (converted)",2.28 µM and 2.58 µM and 1.86 µM
same,IC50,"[1]; Table S3, estimate, preliminary single-replicate HTRF assay, read-out: IC50 CgBdf1 BD1",5 µM
same,IC50,"[2]; Fig 2C original data, analogs of 24, single experiments Exp1-3, read-out: pIC50 CgBD2 (converted)",> 100 µM
same,IC50,"[2]; Table S3, estimate, preliminary single-replicate HTRF assay, read-out: IC50 CgBdf1 BD2",> 20 µM
same,IC50,[3],> 20 µM
same,IC50,[4],> 20 µM
same,"Normalized (0 to 100%), WT, Average","[5]; CgBdf1 BD1 WT, normalized peptide array signal",2.21%
same,"Raw data, WT, Left","[5]; CgBdf1 BD1 WT, peptide array signal, left replicate",0.006616
same,"Raw data, WT, Rigt","[5]; CgBdf1 BD1 WT, peptide array signal, right replicate",0.03749
same,"Normalized (0 to 100%), YF mutant, Average","[5]; CgBdf1 BD1 YF mutant, normalized peptide array signal",0.293%
same,"Raw data, YF mutant, Left","[5]; CgBdf1 BD1 YF mutant, peptide array signal, left replicate",0.003085
same,"Raw data, YF mutant, Right","[5]; CgBdf1 BD1 YF mutant, peptide array signal, right replicate",0.002776
same,"Normalized (0 to 100%), WT, Average","[6]; CgBdf1 BD2 WT, normalized peptide array signal",0.608%
same,"Raw data, WT, Left","[6]; CgBdf1 BD2 WT, peptide array signal, left replicate",0.004055
same,"Raw data, WT, Rigt","[6]; CgBdf1 BD2 WT, peptide array signal, right replicate",0.00811
same,"Normalized (0 to 100%), YF mutant, Average","[6]; CgBdf1 BD2 YF mutant, normalized peptide array signal",0.859%
same,"Raw data, YF mutant, Left","[6]; CgBdf1 BD2 YF mutant, peptide array signal, left replicate",0.01319
same,"Raw data, YF mutant, Right","[6]; CgBdf1 BD2 YF mutant, peptide array signal, right replicate",0.003988
same,EC50,"[7]; read-out: pEC50 (WT BDF1), Fig 2D (converted), WT C. glabrata",180 µM
same,EC50,"[7]; read-out: pEC50 growth inhibition, Fig 2C (converted), strain BD1 Y-F",149 µM
